One test has as its system SK-N-SH cells. The experiment in a line: microscopy of treated SK-N-SH cells for membrane blebbing. The test is classed as cell-based, human.
For a further test, the system named is SKOV3 cells. Briefly: sulphorhodamine B (SRB) cell viability / proliferation assay. The test is classed as cell-based, human. From the text:
The mammalian cell lines used to test the effects of syringolin A were human neuroblastoma (NB) cells with either wild type p53 (line SK-N-SH, provided by the American Type Culture Collection [ATCC], Manassas, Va.; Davidoff, et al. 1992. Oncogene 7:127-133; McKenzie, et al. 1999. Clin. Cancer Res. 5:4199-4207; Tweddle, et al. 2001. Am. J. Pathol. 158:2067-2077), mutant p53 (line LAN-1, cysteine to stop codon at residue 182, provided by Dr. Robert Seeger, University of California, Los Angeles, Calif.; Davidoff, et al. 1992. Oncogene 7:127-133; Tweddle, et al. 2001. Cancer Res. 61:8-13; Tweddle, et al. 2003. […] Cells were seeded 18-24 hours before GlbA or SylA treatment and analyzed after 24 and/or 48 hours. Cell numbers were determined using a haemacytometer in the presence of trypan blue (Fisher Scientific, Pittsburgh, Pa.).
To then test the effects of syringolin A on proliferation, cells at 0.25-0.5×10^5 cells per ml were seeded in 96-well microtiter plates containing 100 μl of culture medium per well. […] Cells were incubated for 48 hours, photographed, and the viability of cells (calculated as a percentage of control cell counts) was determined using the sulphorhodamine B (SRB) assay as previously reported (Skehan, et al. 1990. J. Natl. Cancer Inst. 82:1107-1112, which is incorporated herein by reference in its entirety). […]

In test [1] the test system is NB and ovarian cancer cells. As to conditions: Coleman et al. 2006, cited from earlier work.
For test [2], the target named is T1, proteasome activity in SK-N-SH neuroblastoma cells (Homo sapiens, UniProt P28074).
T1 construct: endogenous in cells; host or cells: SK-N-SH
T1 sequence (P28074 60-263): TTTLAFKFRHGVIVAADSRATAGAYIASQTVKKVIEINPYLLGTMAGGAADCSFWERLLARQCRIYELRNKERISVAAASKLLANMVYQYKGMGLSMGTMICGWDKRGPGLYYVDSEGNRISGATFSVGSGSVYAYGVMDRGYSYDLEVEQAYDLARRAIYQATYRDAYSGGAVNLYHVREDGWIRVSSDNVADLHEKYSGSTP
Conditions: read-out: IC50 of proteasomal activity, previously determined, Groll et al. 2008; cited from earlier work.

In test [3] the test system is β-actin, procaspase-3 and protein kinase Akt/PKB. Briefly: Western blot of β-actin, procaspase-3 and Akt/PKB in syringolin A-treated cells. It counts as cell-based, human. As to conditions: 20 μM, 48 hours. A general note: Immunoblotting shows a protein as a band on a membrane.
The test system of test [4] is poly (ADP-ribose) polymerase (PARP). The experiment in a line: Western blot of PARP cleavage in SKOV3 cells. It counts as cell-based, human. As to conditions: SKOV3, 20 μM, 24 and 48 hours. The procedure: The induction of an apoptotic response in cancer cells by the addition of syringolin A was verified by monitoring the cleavage of poly (ADP-ribose) polymerase (PARP), a common response during apoptosis. SK-N-SH cells were cultured in the presence or absence of 20 μM syringolin A for 0, 24 and 48 hours, and cell lysates were then generated as described in Example 4 and probed for the presence of PARP by Western blotting using rabbit polyclonal anti-PARP (#9542) (diluted 1:1000) and the HRP-linked anti-rabbit secondary antibody described in Example 4. The results were representative of four independent experiments. […] The treatment of cells for 48 hours further increased the levels of cleaved PARP, whereas noncleaved PARP disappeared. In a similar manner, syringolin A induced PARP cleavage in SKOV3 cells, but noncleaved PARP was still detected 48 hours after treatment (FIG. 5B).

In test [5] the test system is cells colonized by powdery mildew in wheat. As to conditions: literature (Amrein 2004; Waspi 1998-2001); cited from earlier work.

These results are taken from US8597904B2, “Pharmaceutical compositions for the treatment of conditions responsive to proteasome inhibition” (priority 2007, dated 2013).

`CCCCCCC/C=C/C=C/C(=O)N[C@H](C(=O)N[C@H]1C[C@@H](O)CCNC(=O)/C=C/[C@H](C)NC1=O)[C@@H](C)O` [glidobactin A]: the “membrane blebbing / apoptotic effects by microscopy” value in the test on SK-N-SH cells is reported as “presence of membrane blebbing”.

For `CC(C)[C@H](NC(=O)N[C@H](C(=O)N[C@H]1/C=C/CCNC(=O)/C=C/[C@H](C(C)C)NC1=O)C(C)C)C(=O)O` [syringolin A], the cell morphology result in the test with SKOV3 cells (SKOV3, 25 μM, no detachment or floating cells) is “affected the cell morphology”; in test [1] (NB cells, 25 μM, 48 hours), “severe morphological changes”. Further, the cell proliferation rate entry with SKOV3 cells (SKOV3, dose-dependent) was “reduced the cell proliferation rate”. In addition, the IC50 in test [1] (read-out: IC-50 (concentration at which the cell proliferation rate is reduced to 50%)) is approximately 25 µM; in test [2], 1.43 µM. Further, the “levels of β-actin, procaspase-3 and protein kinase Akt/PKB” value in test [3] was “decreased”. Also, in test [4], the PARP cleavage entry is “induces apoptosis-associated PARP cleavage”. The hypersensitive cell death entry in test [5] was “induce hypersensitive death of cells colonized by powdery mildew in wheat”.
